According to patent US20040116418A1, “Compounds and methods for inhibition of HIV and related viruses” (Medivir AB, priority 1994, published 2004):
Where “and” joins values, the source holds several entries; their conditions need not be identical. Equal entries are not always repeated. Where two headings read alike, the source gives them in different places. Each block holds one molecule with its values, some of them ahead of it.

Experiments:
recombinant HIV-RT = recombinant HIV-RT (Human immunodeficiency virus type 1 group M subtype B, UniProt P04585); test: Test I (HIVRT (rAdt)): direct inhibitory activity on HIV-RT; assay type: biochemical
Experimental: 100 mM Tris-HCl pH 7.6, 100 mM KCl, 4 mM MgCl2, 4 mM DTT, 275 mg/ml BSA, 0.5 mg (rA)n(dT)12-18 and 0.3 mM ^3H-=dTTP (specific activity 18.000 cpm/mol). After 60 minutess of incubation 40 ml in duplicate were spotted on paper discs and washed in 5% TCA. After rinsing the paper discs in ethanol they were dried and counted in scintillation fluid.

HIV virus = test: Test A (XTT): reduction of virus-caused cytotoxicity in MT4 cells; assay type: cell-based; conditions: for inhibition at 0.01 µg/mL: 0.01 μg/ml; for % inhibition: Test A
Experimental: Tests A, B, C, and D (XTT)
MT4 cells in a medium of RPMI 1640, 5% FCS, penicillin/streptomycin are adjusted to 2×10^5 cells/ml and seeded into microplates (96 wells/plate) […] cell suspension/well giving 2×10^4 cells/well. The compound to be tested is made into a 10 mg/ml mixture in DMSO and stored at −20° C. […] Further dilutions to […] are made in medium containing microplates. Fifty ml of the 400, 40, and 4 mg/ml are transferred to the cell-containing microplates with a multi-channel pipette (final concentration: 100, 10, and 1 mg/ml). Finally, […] of virus suspension is added to each well (with a repetitive “Eppendorf” multipipett). […] The plate is put into a plastic bag and incubated for six days in CO2 atmosphere.
To each well in the plate is added 50 ml of XTT ((2,3-bis[2-methoxy-4-nitro-5-sulfophenyl]-5-[(phenylamin o)carbonyl]-2H-tetrazolium hydroxide), (1 mg/ml 0.01-0.02 mM N-metyl-phenazonium methosulfate). After six hours of incubation in C02 atmosphere the plates are covered with adhesive plate sealers and gently mixed on a vortex. Optical densities are determined at a wavelength of 450 nm and a reference wavelength of 650 nm. The percent reduction of cytotoxocity caused by the virus infection is calculated as follows: [formula]

[1] = headed 0.1 μg/ml (after 0.001 μg/ml)
[2] = Human immunodeficiency virus 1, MT4
[3] = Human immunodeficiency virus 1, MT4, Test A
[4] = Human immunodeficiency virus 1, MT4, Test A, 100 μg/ml, read-out: % inhibition

Structure (SMILES): O=C(Nc1ccc(Cl)cn1)N[C@H]1CC1c1c(F)cccc1F (some centres unmarked)
- % inhibition (recombinant HIV-RT; 0.001 μg/ml): 62%
- inhibition at 0.001 µg/mL (recombinant HIV-RT; 0.001 μg/ml): 55%
- % inhibition (recombinant HIV-RT; 0.01 μg/ml): 93%
- inhibition at 0.01 µg/mL (recombinant HIV-RT; 0.01 μg/ml): 89%
- % inhibition (recombinant HIV-RT; 0.1 μg/ml): 97%
- inhibition at 0.1 µg/mL (recombinant HIV-RT; 0.1 μg/ml): 98%
- inhibition at 1 µg/mL (recombinant HIV-RT; 1 μg/ml): 100%
- % inhibition (recombinant HIV-RT; [1]): 6% and 16%
- inhibition at 0.1 µg/mL (HIV virus; [2]): 100%
- inhibition at 10 µg/mL (HIV virus; [2]): 100%
- inhibition at 100 µg/mL (HIV virus; [2]): 100%
- inhibition at 0.001 µg/mL (HIV virus; Human immunodeficiency virus 1, MT4, Test A, 0.001 μg/ml): 7%
- inhibition at 0.01 µg/mL (HIV virus; [3]): 80%
- inhibition at 100 µg/mL (HIV virus; [4]): 3%
- % inhibition (HIV virus; 0.001 μg/ml): 8%
- % inhibition (HIV virus; 1 μg/ml): 90%

Structure (SMILES): CCOc1ccc(F)c(CCNC(=O)Nc2ccc(Br)cn2)c1Cl
- % inhibition (recombinant HIV-RT; [1]): 13% and 18%

Structure (SMILES): CCOc1ccc(F)c(C2C[C@@H]2NC(=O)Nc2ccc(Cl)cn2)c1Cl (some centres unmarked)
- % inhibition (recombinant HIV-RT; 0.001 μg/ml): 30%
- inhibition at 0.001 µg/mL (recombinant HIV-RT; 0.001 μg/ml): 46%
- % inhibition (recombinant HIV-RT; 0.01 μg/ml): 80%
- inhibition at 0.01 µg/mL (recombinant HIV-RT; 0.01 μg/ml): 82%
- inhibition at 0.1 µg/mL (recombinant HIV-RT; 0.1 μg/ml): 96%
- % inhibition (recombinant HIV-RT; 1 μg/ml): 97%
- inhibition at 1 µg/mL (recombinant HIV-RT; 1 μg/ml): 99%
- IC50 (recombinant HIV-RT; read-out: IC50 (converted)): 2.86 nM and 5.21 nM
- inhibition at 0.01 µg/mL (HIV virus; [3]): 100%
- inhibition at 0.1 µg/mL (HIV virus; Human immunodeficiency virus 1, MT4, Test A, 0.1 μg/ml, read-out: % inhibition): 100%
- inhibition at 1 µg/mL (HIV virus; Human immunodeficiency virus 1, MT4, Test A, 1 μg/ml): 87%
- inhibition at 10 µg/mL (HIV virus; Human immunodeficiency virus 1, MT4, Test A, 10 μg/ml, read-out: % inhibition): 88%
- inhibition at 100 µg/mL (HIV virus; [4]): 24%
- % inhibition (HIV virus; 100 μg/ml): 30%

Structure (SMILES): O=C(Nc1ccc(Cl)cn1)N[C@@H]1C[C@@H]1c1cccc([N+](=O)[O-])c1 (racemic) [Example 21, (+,−)-N-(cis-2-(3-Nitrophenyl)-cyclopropyl)-N′-(5-chloropyrid-2-yl)-urea]
- IC50 (recombinant HIV-RT; read-out: IC50 (converted)): 150 nM

Structure (SMILES): CC(=O)c1cccc([C@H]2C[C@H]2NC(=O)Nc2ccc(Cl)cn2)c1 (racemic) [Example 23, (+,−)-N-(cis-2-(3-Acetylphenyl)-cyclopropyl)-N′-(5-chloropyrid-2-yl)-urea]
- IC50 (recombinant HIV-RT; read-out: IC50 (converted)): 15.2 nM and 42.5 nM

Structure (SMILES): O=C(Nc1ccc(Br)cn1)N[C@@H]1C[C@H]1c1c(F)cccc1F (relative stereo) [Example 27, (1R,2S)-N-(cis-2-(2,6-Difluorophenyl)-cyclopropyl)-N′-(5-bromopyrid-2-yl)-urea]
- IC50 (recombinant HIV-RT): 0.5 ng/mL and 0.6 ng/mL

- melting point: 189 °C
Structure (SMILES): N#Cc1ccc(NC(=O)N[C@@H]2C[C@@H]2c2c(F)cccc2Cl)nc1 (relative stereo) [Example 33, N-(cis-2-(2-chloro-6-fluorophenyl)-cyclopropyl)-N′-(5-cyanopyrid-2-yl)-urea]

Structure (SMILES): COCOc1c(C(C)=O)ccc(F)c1[C@H]1C[C@H]1NC(=O)Nc1ccc(Cl)cn1 (relative stereo) [Example 56, (+,−)-N-(cis-2-(5-Acetyl-2-fluoro-6-methoxymethoxy-phenyl)cyclopropyl)-N′-(5-chloropyrid-2-yl)-urea]
- IC50 (recombinant HIV-RT): 2.2 ng/mL

- melting point: 151 to 154 °C
Structure (SMILES): CC(NC(=O)Nc1ccc(Br)cn1)c1ncccc1F (centres unmarked) [Example 10, N-(3-Fluoropyrid-2-yl)eth-2yl-N′-(5-bromopyrid-2-yl)-urea]

Structure (SMILES): CC(=O)c1ccc(F)c(CCNC(=O)Nc2ccc(Cl)cn2)c1O [Example 58]
- IC50 (recombinant HIV-RT): 38 ng/mL
